# “And” between values parts separate entries of the source, which are not always exact repeats. Identical values can stand only once. Toxic doses and inconclusive results are not listed.
# Test system: P388 leukemia ip, CD2F1 mice, survival T/C
# Test: NCI In Vivo Anticancer Drug Screen. Data for tumor model P388 Leukemia (intraperitoneal) in CD2F1 (CDF1) mice
# Conditions: endpoint: median survival time, higher = longer survival
# Summary of the method: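 Mice carrying the transplanted tumor received test compound or vehicle. Survival was recorded in each group, and the value is the treated-group measurement divided by that of the vehicle-treated control group.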
# [1] = dose: 60.0 mg/kg/injection, schedule: Q01DX005 (ip), vehicle: saline with Tween-80
# [2] = dose: 120.0 mg/kg/injection, schedule: Q01DX005 (ip), vehicle: saline with Tween-80
# [3] = dose: 240.0 mg/kg/injection, schedule: Q01DX005 (ip), vehicle: saline with Tween-80
# [4] = dose: 50.0 mg/kg/injection, schedule: Q01DX005 (ip), vehicle: saline with Tween-80
# [5] = dose: 100.0 mg/kg/injection, schedule: Q01DX005 (ip), vehicle: saline with Tween-80
# [6] = dose: 6.25 mg/kg/injection, schedule: Q01DX009 (ip), vehicle: distilled water + Tween-80
# [7] = dose: 12.5 mg/kg/injection, schedule: Q01DX009 (ip), vehicle: distilled water + Tween-80
# [8] = dose: 100.0 mg/kg/injection, schedule: Q04DX003 (ip), vehicle: saline with Tween-80
# [9] = dose: 200.0 mg/kg/injection, schedule: Q04DX003 (ip), vehicle: saline with Tween-80
# [10] = dose: 400.0 mg/kg/injection, schedule: Q04DX003 (ip), vehicle: saline with Tween-80
# [11] = dose: 50.0 mg/kg/injection, schedule: Q01DX005 (ip), vehicle: Klucel (hydroxypropylcellulose) (HPC)
# [12] = dose: 100.0 mg/kg/injection, schedule: Q01DX005 (ip), vehicle: Klucel (hydroxypropylcellulose) (HPC)
# [13] = dose: 200.0 mg/kg/injection, schedule: Q01DX005 (ip), vehicle: Klucel (hydroxypropylcellulose) (HPC)
# [14] = dose: 50.0 mg/kg/injection, schedule: Q01DX009 (ip), vehicle: saline
# [15] = dose: 100.0 mg/kg/injection, schedule: Q01DX009 (ip), vehicle: saline
# [16] = dose: 200.0 mg/kg/injection, schedule: Q01DX009 (ip), vehicle: saline
# [17] = dose: 12.5 mg/kg/injection, schedule: Q01DX005 (ip), vehicle: Klucel (hydroxypropylcellulose) (HPC)
compound,measurement,setting,value
COC(=O)CN1C(=O)c2cccc3cc([N+](=O)[O-])cc(c23)C1=O,T/C,[1],100 % of control
same,T/C,[2],98 % of control
same,T/C,[3],90 % of control
COc1ccc(-c2cc(C(=O)Nc3cc(Cl)cc(Cl)c3)c3ccccc3n2)cc1,T/C,[4],91 % of control
same,T/C,[5],93 % of control
same,T/C,"dose: 200.0 mg/kg/injection, schedule: Q01DX005 (ip), vehicle: saline with Tween-80",91 % of control
CCC[CH2][Sn]1([CH2]CCC)[O]C(=O)CSC(=S)SCC(=O)[O]1,T/C,"dose: 1.56 mg/kg/injection, schedule: Q01DX009 (ip), vehicle: saline",90 % of control
same,T/C,"dose: 3.12 mg/kg/injection, schedule: Q01DX009 (ip), vehicle: saline",92 % of control
same,T/C,"dose: 6.25 mg/kg/injection, schedule: Q01DX009 (ip), vehicle: saline with Tween-80",116 % of control
same,T/C,"dose: 6.25 mg/kg/injection, schedule: Q01DX009 (ip), vehicle: saline",89 % of control
CSc1ccc(/C=N/N=c2ccn(-c3ccc(Cl)cc3)cc2)cc1,T/C,"dose: 25.0 mg/kg/injection, schedule: Q01DX001 (ip), vehicle: Klucel (hydroxypropylcellulose) (HPC)",100 % of control
same,T/C,"dose: 50.0 mg/kg/injection, schedule: Q01DX001 (ip), vehicle: Klucel (hydroxypropylcellulose) (HPC)",102 % of control
same,T/C,"dose: 100.0 mg/kg/injection, schedule: Q01DX001 (ip), vehicle: Klucel (hydroxypropylcellulose) (HPC)",100 % of control and 91 % of control
CCn1c(C)c(COC(=O)NC)c(COC(=O)NC)c1-c1ccc(Cl)c(Cl)c1,T/C,[6],150 % of control and 152 % of control
same,T/C,[7],153 % of control
N/N=C(/c1ccc(Cl)cc1)N1CCOCC1,T/C,[8],103 % of control
same,T/C,[9],103 % of control
same,T/C,[10],98 % of control
O=c1c2ccccc2nc(-c2cccc([N+](=O)[O-])c2)n1O,T/C,[1],89 % of control
same,T/C,[2],100 % of control
same,T/C,[3],91 % of control
[N-]=[N+]=CC(=O)NCC(=O)NN=C(CO)CO,T/C,"dose: 180.0 mg/kg/injection, schedule: Q01DX009 (ip), vehicle: water",154 % of control
same,T/C,"dose: 270.0 mg/kg/injection, schedule: Q01DX009 (ip), vehicle: water",172 % of control
same,T/C,"dose: 400.0 mg/kg/injection, schedule: Q01DX009 (ip), vehicle: water",172 % of control
same,T/C,"dose: 600.0 mg/kg/injection, schedule: Q01DX009 (ip), vehicle: water",181 % of control
O=[N+]([O-])c1cnn(Cn2cc([N+](=O)[O-])cn2)c1,T/C,[8],109 % of control
same,T/C,[9],116 % of control
same,T/C,[10],120 % of control
CCCC(Nc1ncccn1)Nc1ncccn1,T/C,[11],100 % of control
same,T/C,[12],100 % of control
same,T/C,[13],99 % of control
COCCn1c2nc(=O)n(-c3ccccc3)c(=O)c-2nc2c1CCCC2,T/C,"dose: 25.0 mg/kg/injection, schedule: Q01DX009 (ip), vehicle: saline",100 % of control
same,T/C,[14],93 % of control
same,T/C,[15],94 % of control
same,T/C,[16],116 % of control
O=Cc1ccccc1/C=C/C(=O)/C=C/c1ccccc1C=O,T/C,[17],105 % of control
same,T/C,"dose: 25.0 mg/kg/injection, schedule: Q01DX005 (ip), vehicle: Klucel (hydroxypropylcellulose) (HPC)",105 % of control
same,T/C,[11],107 % of control and 110 % of control
Cc1ccc2nc(CN(CCN(Cc3nc4ccc(C)cc4[nH]3)Cc3nc4ccc(C)cc4[nH]3)Cc3nc4ccc(C)cc4[nH]3)[nH]c2c1,T/C,"dose: 0.38 mg/kg/injection, schedule: Q01DX005 (ip), vehicle: saline with Tween-80",94 % of control
same,T/C,"dose: 0.75 mg/kg/injection, schedule: Q01DX005 (ip), vehicle: saline with Tween-80",97 % of control
same,T/C,"dose: 1.5 mg/kg/injection, schedule: Q01DX005 (ip), vehicle: saline with Tween-80",109 % of control
same,T/C,"dose: 3.0 mg/kg/injection, schedule: Q01DX005 (ip), vehicle: saline with Tween-80",106 % of control
same,T/C,"dose: 3.12 mg/kg/injection, schedule: Q01DX005 (ip), vehicle: saline with Tween-80",113 % of control
Nc1nnc(-c2ccc(Cl)cc2)o1,T/C,[1],100 % of control
same,T/C,[2],110 % of control
same,T/C,[3],103 % of control
CCN(CC)Cc1ccc(N)cc1O,T/C,[14],106 % of control and 107 % of control
same,T/C,[15],97 % of control and 98 % of control
same,T/C,[16],99 % of control and 97 % of control
c1ccc2c3ccc(c2c1)CCc1ccc(c2ccccc12)CC3,T/C,"dose: 100.0 mg/kg/injection, schedule: Q04DX003 (ip), vehicle: other",96 % of control
same,T/C,"dose: 200.0 mg/kg/injection, schedule: Q04DX003 (ip), vehicle: other",90 % of control
O=S(=O)(O/C1=C/CCCCCC1)C(F)(F)F,T/C,"dose: 50.0 mg/kg/injection, schedule: Q01DX009 (ip), vehicle: olive oil, sesame oil, peanut oil",97 % of control
same,T/C,"dose: 100.0 mg/kg/injection, schedule: Q01DX009 (ip), vehicle: olive oil, sesame oil, peanut oil",113 % of control
same,T/C,"dose: 200.0 mg/kg/injection, schedule: Q01DX009 (ip), vehicle: olive oil, sesame oil, peanut oil",103 % of control
COc1ccc2c(c1)[nH]c1c(/C=C/c3ccc([N+](=O)[O-])cc3)nccc12,T/C,"dose: 30.0 mg/kg/injection, schedule: Q01DX005 (ip), vehicle: Klucel (hydroxypropylcellulose) (HPC)",107 % of control
same,T/C,"dose: 60.0 mg/kg/injection, schedule: Q01DX005 (ip), vehicle: Klucel (hydroxypropylcellulose) (HPC)",103 % of control
same,T/C,"dose: 120.0 mg/kg/injection, schedule: Q01DX005 (ip), vehicle: Klucel (hydroxypropylcellulose) (HPC)",105 % of control
same,T/C,"dose: 240.0 mg/kg/injection, schedule: Q01DX005 (ip), vehicle: Klucel (hydroxypropylcellulose) (HPC)",90 % of control
COc1ccc(CCN2C=CC(C#N)C(C(C)=O)=C2)cc1OC (stereo not given),T/C,[11],99 % of control
same,T/C,[12],94 % of control
same,T/C,[13],90 % of control
COCC(CC(=O)O)C(C(=O)O)C(=O)O (stereo not given),T/C,"dose: 12.5 mg/kg/injection, schedule: Q01DX009 (ip), vehicle: water",100 % of control
same,T/C,"dose: 25.0 mg/kg/injection, schedule: Q01DX009 (ip), vehicle: water",106 % of control
same,T/C,"dose: 50.0 mg/kg/injection, schedule: Q01DX009 (ip), vehicle: water",106 % of control
same,T/C,"dose: 100.0 mg/kg/injection, schedule: Q01DX009 (ip), vehicle: water",93 % of control
same,T/C,"dose: 200.0 mg/kg/injection, schedule: Q01DX009 (ip), vehicle: water",92 % of control
Cn1c2ccccc2c2cc3c(cc21)C(=O)OC3=O,T/C,"dose: 3.12 mg/kg/injection, schedule: Q01DX005 (ip), vehicle: Klucel (hydroxypropylcellulose) (HPC)",100 % of control
same,T/C,"dose: 6.25 mg/kg/injection, schedule: Q01DX005 (ip), vehicle: Klucel (hydroxypropylcellulose) (HPC)",93 % of control
same,T/C,[17],90 % of control
same,T/C,[11],88 % of control
same,T/C,[12],90 % of control
Nc1c(Cl)[nH]cnc1=S,T/C,"dose: 100.0 mg/kg/injection, schedule: Q01DX009 (ip), vehicle: suspension in saline",106 % of control
same,T/C,"dose: 200.0 mg/kg/injection, schedule: Q01DX009 (ip), vehicle: suspension in saline",105 % of control
same,T/C,"dose: 400.0 mg/kg/injection, schedule: Q01DX009 (ip), vehicle: suspension in saline",99 % of control
O=C(N/C(=C/c1ccc(Cl)cc1Cl)c1nc2ccccc2s1)c1ccccc1,T/C,[4],109 % of control
same,T/C,[5],111 % of control
NC(=S)N/N=C/C1=C(Cl)c2ccccc2C1,T/C,"dose: 6.25 mg/kg/injection, schedule: Q01DX005 (ip), vehicle: saline with Tween-80",109 % of control
same,T/C,"dose: 12.5 mg/kg/injection, schedule: Q01DX005 (ip), vehicle: saline with Tween-80",119 % of control
Cc1ccc2c(ccc(CC(=S)[S-])[n+]2C)c1,T/C,"dose: 25.0 mg/kg/injection, schedule: Q01DX009 (ip), vehicle: Klucel (hydroxypropylcellulose) (HPC)",114 % of control
same,T/C,"dose: 50.0 mg/kg/injection, schedule: Q01DX009 (ip), vehicle: Klucel (hydroxypropylcellulose) (HPC)",120 % of control
CCOC(=O)c1ccc(N=C=S)cc1,T/C,[6],100 % of control
same,T/C,[7],100 % of control
same,T/C,"dose: 25.0 mg/kg/injection, schedule: Q01DX009 (ip), vehicle: distilled water + Tween-80",100 % of control and 111 % of control
same,T/C,"dose: 50.0 mg/kg/injection, schedule: Q01DX009 (ip), vehicle: distilled water + Tween-80",117 % of control
same,T/C,"dose: 100.0 mg/kg/injection, schedule: Q01DX009 (ip), vehicle: distilled water + Tween-80",109 % of control
